{
  "source": "patent US20250325676A1",
  "about": "“CAMPTOTHECIN PRODRUG AND PHARMACEUTICAL COMPOSITION THEREOF” (TIANJIN HEMAY ONCOLOGY PHARMACEUTICAL CO., LTD, priority 2022, published 2025)",
  "key": {"[1]": {"tested_on": "human colon cancer HCT116", "experiment": "Growth of human colon cancer HCT116 in allogeneic transplantation model", "format": "in vivo, nude mice", "protocol": "(§4) When the tumor volume of the allogeneic transplantation was about 100 to 300 mm^3 and remained stable, the experimental animals were randomly divided into groups according to the size of the tumor volume (day 0) by using a remainder method. The tumor volume was measured 2 to 3 times a week. At the end of the dosage period, the experimental animals were sacrificed. The subcutaneous tumors were peeled and weighed. The anti-tumor activity of the drug against the model was evaluated based on tumor volume and tumor weight-related data.\n(§5) The calculation formula of the tumor volume was: Volume=0.5×long diameter×short diameter×short diameter.\n(§6) V0 was the resulting tumor volume measured at the time of dosing in groups (i.e., d0) and Vt was the tumor volume at each measurement.\n(§7) TRTV was the average RTV of the subject, and CRTV was the average RTV of the model control group.\n(§8) Wn: average body weight of each group of experimental animals on day n, and W0: average body weight of each group of experimental animals on day 0."}, "Fadu": {"tested_on": "Fadu", "experiment": "In vitro inhibition of human tumor cells, Fadu, MTT method", "format": "cell-based"}, "MDA-MB-468": {"tested_on": "MDA-MB-468", "experiment": "In vitro inhibition of human tumor cells, MDA-MB-468, SRB method", "protocol": "(§9) 1.1.2 Cell culture method: Cells were cultured in complete medium, 37° C., 5% CO2, saturated humidity to log growth phase (adherent cells generally attended to complete fusion), and cells were collected for subsequent experiments (adherent cells were first digested with trypsin/ethylene diamine tetraacetic acid (EDTA) to remove adherent).\n(§10) 1.1.3 96-well cell culture plates (hereinafter referred to as 96-well plates) were inoculated with a certain number of cells (see Table 1 for details). The cells were allowed to adhere overnight. […] Finally, the total amount of cell protein in the assay wells was determined by the SRB method, or the cell viability was determined by the MTT method:\n(§11) The culture medium was aspirated from the wells and the cells were fixed for 1 hour or more by adding 10% trichloroacetic acid. Trichloroacetic acid was removed. The resultant was washed with H2O and stained with 0.4% SRB for 15 to 30 minutes. Excess SRB was removed. The resultant was washed with 1% acetic acid. The protein-bound SRB was dissolved by adding 10 mM of 100 μl Tris (trishydroxymethylaminomethane). Tests were carried out at the wavelength of 570 nm.\n(§12) 1.1.4 dilution and addition of β-glucuronidase: 1 to 2 mg of β-glucuronidase was weighed and dissolved in PBS to give a 2 mg/ml of stock solution. […] 80 μl of enzyme working solution was added to the enzyme-containing assay wells. The amount of β-glucuronidase was 1 μg/wells. No enzyme-containing assay wells were added to the 80 μl of complete medium.\n(§13) The assay wells were charged with 20 μl of 10× compound working solution. The final volume was 200 μl per well. The DMSO concentration was 0.1%.\n(§14) 1.1.6 Compound inhibition activity calculation: The test included a compound test group, a compound-free positive solvent control group (PC) and a compound-free negative solvent control group (NC). […] The average inhibition rate and the standard deviation (SD) were obtained from the repeated test wells. The average inhibition rate was plotted on the basis of the compound concentration as an abscissa and distributed in the form of logarithms. The curve was fitted to the Logistic 4 parameter equation. […] The test was generally repeated to obtain 3 valid results."}, "human colon cancer SW620": {"tested_on": "human colon cancer SW620", "conditions": "30 mg/kg i.v. qw × 2, SW620 model", "protocol": "An allogeneic transplantation model of human colon cancer SW620 was established in nude mice subcutaneously using a tumor block inoculation method. When the tumor volume of the allogeneic transplantation was about 100 to 300 mm^3 and remained stable, the experimental animals were randomly divided into groups according to the size of the tumor volume (day 0) by using a remainder method. The tumor volume was measured 2 to 3 times a week. At the end of the dosage period, the experimental animals were sacrificed. The subcutaneous tumors were peeled and weighed. The anti-tumor activity of the drug against the model was evaluated based on tumor volume and tumor weight-related data.\nas §5, §6\nTRTV was the average value of RTV of the subject, and CRTV was the average RTV of the model control group.\nas §8"}, "SW620": {"tested_on": "SW620", "experiment": "In vitro inhibition of human tumor cells, SW620, SRB method", "format": "cell-based", "excerpt": "(§1) The cells were allowed to adhere overnight.\n(§2) Trichloroacetic acid was removed. […] Excess SRB was removed.\n(§3) The DMSO concentration was 0.1%."}, "NCI-N87": {"tested_on": "NCI-N87", "experiment": "In vitro inhibition of human tumor cells, NCI-N87, MTT method", "format": "cell-based"}, "[2]": {"tested_on": "human pancreatic cancer BxPC-3", "conditions": "30 mg/kg i.v. qw × 2", "protocol": "as §4, §5, §6\n(§15) T was the subject and C was the model control.\nas §7, §8\n(§16) In the large tumor efficacy test after the second grouping of the G5 group, since the number of samples in each group of G6.1 and G6.4 was less than three, the relevant data of the large tumor efficacy test were statistically analyzed among groups using the T-Test method."}, "[3]": {"tested_on": "human pancreatic cancer BxPC-3", "experiment": "Growth of human pancreatic cancer BxPC-3 in allogeneic transplantation model", "format": "in vivo, nude mice", "conditions": "25 mg/kg i.v. qw × 2, BxPC-3 model", "protocol": "as §4, §5, §6, §15, §7, §8, §16"}, "BxPC-3": {"tested_on": "BxPC-3", "experiment": "In vitro inhibition of human tumor cells, BxPC-3, MTT method", "format": "cell-based"}, "NCI-H460": {"tested_on": "NCI-H460", "experiment": "In vitro inhibition of human tumor cells, NCI-H460, MTT method", "format": "cell-based"}, "LoVo": {"tested_on": "LoVo", "experiment": "In vitro inhibition of human tumor cells, LoVo, SRB method", "format": "cell-based", "excerpt": "as §1, §2, §3"}, "human colon cancer LoVo": {"tested_on": "human colon cancer LoVo", "conditions": "30 mg/kg i.v. qw × 2, LoVo model", "protocol": "An allogeneic transplantation model of human colon cancer LoVo was established in nude mice subcutaneously using a tumor block inoculation method. When the tumor volume of the allogeneic transplantation was about 100 to 300 mm^3 and kept stable, the experimental animals were randomly divided into groups according to the tumor volume (day 0) by using a remainder method. The tumor volume was measured 2 to 3 times a week. At the end of the dosage period, the experimental animals were sacrificed. The subcutaneous tumors were peeled and weighed. The anti-tumor activity of the drug against the model was evaluated based on tumor volume and tumor weight-related data.\nas §5\nV0 was the resulting tumor volume measured at the time of dosing in groups (i.e., d0) and Vt is the tumor volume at each measurement.\nas §15\nTRTV was the average RTV of the subject and CRTV was the average RTV of the model control group.\nas §8"}, "[4]": {"tested_on": "human colon cancer HCT116", "conditions": "30 mg/kg i.v. qw × 2", "excerpt": "When the tumor volume was more than 600 mm^3 and stable growth was maintained, the experimental animals were randomly divided by the remainder method and administered according to the size of the tumor volume. […] The subcutaneous tumors were stripped and weighed.\nT was the subject and C is the model control.\nTumor volume growth was observed on a regular basis after completion of dosing."}, "[5]": {"tested_on": "human small cell lung cancer NCI-H446", "conditions": "20 mg/kg i.v. qw × 2, NCI-H446 model", "protocol": "An allogeneic transplantation model of human small cell lung cancer NCI-H446 was established in nude mice subcutaneously using a tumor block inoculation method. When the tumor volume of the allogeneic transplantation was about 100 to 300 mm^3 and remained stable, the experimental animals were randomly divided into groups according to the size of the tumor volume (day 0, i.e., d0) using a remainder method. The tumor volume was measured 2 to 3 times a week. At the end of the dosage period, the experimental animals were sacrificed. The subcutaneous tumors were peeled and weighed. The anti-tumor activity of the drug against the model was evaluated based on tumor volume and tumor weight-related data.\nas §5, §6, §15, §7, §8"}, "HCT116": {"tested_on": "HCT116", "experiment": "In vitro inhibition of human tumor cells, HCT116, MTT method", "format": "cell-based"}, "[6]": {"tested_on": "human gastric cancer NCI-N87", "experiment": "Growth of human gastric cancer NCI-N87 in allogeneic transplantation model", "format": "in vivo, nude mice", "experimental": "The tumor volume was measured 2 to 3 times per week. […] The subcutaneous tumors were peeled and weighed.\nThe calculation formula of the tumor volume: Volume=0.5×long diameter×short diameter×short diameter."}, "22RV1": {"tested_on": "22RV1", "experiment": "In vitro inhibition of human tumor cells, 22RV1, SRB method", "protocol": "as §9, §10, §11, §12, §13, §14"}, "A375": {"tested_on": "A375", "experiment": "In vitro inhibition of human tumor cells, A375, SRB method", "protocol": "as §9, §10, §11, §12, §13, §14"}, "BEL-7404": {"tested_on": "BEL-7404", "experiment": "In vitro inhibition of human tumor cells, BEL-7404, SRB method", "protocol": "as §9, §10, §11, §12, §13, §14"}, "[7]": {"conditions": "BxPC-3 large tumors after irinotecan"}, "[8]": {"conditions": "HCT116 large tumor after irinotecan"}},
  "note": "Like-named read-outs stand apart in the source and are kept apart here.",
  "data": [
    {"compound": "CCc1c2c(nc3ccc(OCc4ccc(O[C@@H]5O[C@H](C(=O)[O-])[C@@H](O)[C@H](O)[C@H]5O)cc4OCc4cn(CCCCCC(=O)Nc5ccc(-c6ccc(/N=N/c7ccc8c(S(=O)(=O)[O-])cc(S(=O)(=O)[O-])c(N)c8c7O)c(C)c6)cc5C)nn4)cc13)-c1cc3c(c(=O)n1C2)COC(=O)[C@]3(O)CC.[Na+].[Na+].[Na+]", "note": "[Example 7, (2S,3S,4S,5R,6S)-6-(3-((1-(6-((4′-((E)-(8-amino-1-hydroxy-5,7-disulfonicnaphthalen-2-yl)diazenyl)-3,3′-dimethyl-[1,1′-biphenyl]-4-yl)amino)-6-oxohexyl)-1H-1,2,3-triazol-4-yl)methoxy)-4-((((S)-4,11-diethyl-4-hydroxy-3,14-dioxy-3,4,12,14-tetrahydro-1H-pyrano[3′,4′:6,7]indolazino[1,2-b]quinolin-9-yl)oxy)methyl)phenoxy)-3,4,5-trihydroxytetrahydro-2H-pyran-2-carboxylate trisodium]", "values": [
      {"measurement": "T/C (%)", "setting": "[1]; 10 mg/kg i.v. qw × 2", "value": 13.3, "unit": "%"},
      {"measurement": "Tumor inhibition rate (%)", "setting": "[1]; 10 mg/kg i.v. qw × 2", "value": 90.0, "unit": "%"},
      {"measurement": "Final body weight change (%)", "setting": "[1]; 10 mg/kg i.v. qw × 2, nude mouse", "value": "−12.8", "unit": "%"},
      {"measurement": "IC50", "setting": "Fadu; Adding βGU", "value": 8.5, "unit": "nM"},
      {"measurement": "IC50", "setting": "Fadu; No βGU", "value": 242, "unit": "nM"},
      {"measurement": "IC50", "setting": "MDA-MB-468; Adding βGU", "value": 6.8, "unit": "nM"},
      {"measurement": "IC50", "setting": "MDA-MB-468; No βGU", "value": 70, "unit": "nM"},
      {"measurement": "T/C (%)", "setting": "human colon cancer SW620", "value": 0.6, "unit": "%"},
      {"measurement": "Tumor inhibition rate (%)", "setting": "human colon cancer SW620", "value": 99.7, "unit": "%"},
      {"measurement": "Final body weight change (%)", "setting": "human colon cancer SW620; nude mouse", "value": "−4.6", "unit": "%"},
      {"measurement": "IC50", "setting": "SW620; Adding βGU", "value": 6.9, "unit": "nM"},
      {"measurement": "IC50", "setting": "SW620; No βGU", "value": 306, "unit": "nM"},
      {"measurement": "IC50", "setting": "NCI-N87; Adding βGU", "value": 24, "unit": "nM"},
      {"measurement": "IC50", "setting": "NCI-N87; No βGU", "value": 1140, "unit": "nM"},
      {"measurement": "Relative volume RTV (X ± S.D.)", "setting": "[2]; [7]", "value": "0.28 ± 0.03"},
      {"measurement": "T/C (%)", "setting": "[2]; [7]", "value": 7.7, "unit": "%"},
      {"measurement": "Tumor inhibition rate (%)", "setting": "[2]; [7]", "value": 94.2, "unit": "%"},
      {"measurement": "Tumor weight (g, X ± S.D.)", "setting": "[2]; [7]", "value": "0.174 ± 0.164", "unit": "g"},
      {"measurement": "Final body weight change (%)", "setting": "[2]; BxPC-3 tumors more than 600 mm^3 after irinotecan 100 mg/kg i.p. qw × 2", "value": "−0.3", "unit": "%"},
      {"measurement": "Relative volume RTV (X ± S.D.)", "setting": "[3]", "value": "0.23 ± 0.08"},
      {"measurement": "T/C (%)", "setting": "[3]", "value": 4.9, "unit": "%"},
      {"measurement": "Tumor inhibition rate (%)", "setting": "[3]", "value": 96.7, "unit": "%"},
      {"measurement": "Tumor weight (g, X ± S.D.)", "setting": "[3]", "value": "0.055 ± 0.037", "unit": "g"},
      {"measurement": "Final body weight change (%)", "setting": "[3]; nude mouse", "value": 2.9, "unit": "%"},
      {"measurement": "IC50", "setting": "BxPC-3; Adding βGU", "value": 27, "unit": "nM"},
      {"measurement": "IC50", "setting": "BxPC-3; No βGU", "value": 1110, "unit": "nM"},
      {"measurement": "IC50", "setting": "NCI-H460; Adding βGU", "value": 14, "unit": "nM"},
      {"measurement": "IC50", "setting": "NCI-H460; No βGU", "value": 219, "unit": "nM"},
      {"measurement": "IC50", "setting": "LoVo; Adding βGU", "value": 19, "unit": "nM"},
      {"measurement": "IC50", "setting": "LoVo; No βGU", "value": 253, "unit": "nM"},
      {"measurement": "T/C (%)", "setting": "human colon cancer LoVo", "value": 12.3, "unit": "%"},
      {"measurement": "Tumor inhibition rate (%)", "setting": "human colon cancer LoVo", "value": 91.1, "unit": "%"},
      {"measurement": "Final body weight change (%)", "setting": "human colon cancer LoVo; nude mouse", "value": 0.0, "unit": "%"},
      {"measurement": "Relative volume RTV (X ± S.D.)", "setting": "[4]; [8]", "value": "1.10 ± 0.16"},
      {"measurement": "T/C (%)", "setting": "[4]; [8]", "value": 29.6, "unit": "%"},
      {"measurement": "Tumor inhibition rate (%)", "setting": "[4]; [8]", "value": 73.6, "unit": "%"},
      {"measurement": "Tumor weight (g, X ± S.D.)", "setting": "[4]; [8]", "value": "0.720 ± 0.492", "unit": "g"},
      {"measurement": "Final body weight change (%)", "setting": "[4]; HCT116 tumors more than 600 mm^3 after irinotecan 100 mg/kg qw×2", "value": "−10.7", "unit": "%"},
      {"measurement": "Relative volume RTV (X ± S.D.)", "setting": "[5]", "value": "0.11 ± 0.02"},
      {"measurement": "T/C (%)", "setting": "[5]", "value": 1.5, "unit": "%"},
      {"measurement": "Tumor inhibition rate (%)", "setting": "[5]", "value": 98.9, "unit": "%"},
      {"measurement": "Tumor weight (g, X ± S.D.)", "setting": "[5]", "value": "0.011 ± 0.005", "unit": "g"},
      {"measurement": "Final body weight change (%)", "setting": "[5]; nude mouse", "value": 4.1, "unit": "%"},
      {"measurement": "IC50", "setting": "HCT116; Adding βGU (β-glucuronidase)", "value": 3.9, "unit": "nM"},
      {"measurement": "IC50", "setting": "HCT116; No βGU (direct effects of compound on cells)", "value": 147, "unit": "nM"},
      {"measurement": "Relative volume RTV (X ± S.D.)", "setting": "[6]; 20 mg/kg i.v. qw × 2", "value": "0.69 ± 0.15"},
      {"measurement": "T/C (%)", "setting": "[6]; 20 mg/kg i.v. qw × 2", "value": 13.6, "unit": "%"},
      {"measurement": "Tumor inhibition rate (%)", "setting": "[6]; 20 mg/kg i.v. qw × 2", "value": 94.2, "unit": "%"},
      {"measurement": "Tumor weight (g, X ± S.D.)", "setting": "[6]; 20 mg/kg i.v. qw × 2", "value": "0.069 ± 0.009", "unit": "g"},
      {"measurement": "Final body weight change (%)", "setting": "[6]; 20 mg/kg i.v. qw × 2, nude mouse", "value": 13.6, "unit": "%"},
      {"measurement": "IC50", "setting": "22RV1; Adding βGU", "value": 5.2, "unit": "nM"},
      {"measurement": "IC50", "setting": "22RV1; No βGU", "value": 147, "unit": "nM"},
      {"measurement": "IC50", "setting": "A375; Adding βGU", "value": 10, "unit": "nM"},
      {"measurement": "IC50", "setting": "A375; No βGU", "value": 600, "unit": "nM"},
      {"measurement": "IC50", "setting": "BEL-7404; Adding βGU", "value": 33, "unit": "nM"},
      {"measurement": "IC50", "setting": "BEL-7404; No βGU", "value": 514, "unit": "nM"}
    ]}
  ]
}
